Experimental data as given in ChEMBL document CHEMBL6092220 (J Med Chem, 2024).

Key:
[1] = target: T1, Signal transducer and activator of transcription 3 (Homo sapiens, UniProt P40763); experiment: Binding affinity to STAT3 (unknown origin) assessed as inhibition constant
[2] = Chemical stability of the compound in PBS buffer at pH 4; format: physicochemical
[3] = Chemical stability of the compound in PBS buffer at pH 7.4; format: physicochemical
[4] = Chemical stability of the compound in PBS buffer at pH 8; format: physicochemical
[5] = target: T2, Protein cereblon/Signal transducer and activator of transcription 3 (Homo sapiens, UniProt P40763+Q96SW2); experiment: PROTAC activity at his-SUMO-tagged STAT3 (127 to 688 residues)/CRBN in human HeLa cells assessed as induction of STAT3 degradation incubated for 24 hrs by TECAN SPARK microplate reader analysis; format: cell-based
[6] = target: T2, Protein cereblon/Signal transducer and activator of transcription 3; experiment: PROTAC activity at his-SUMO-tagged STAT3 (127 to 688 residues)/CRBN in human HeLa cells assessed as induction of STAT3 degradation incubated for 24 hrs by TECAN SPARK microplate reader analysis relative to control; format: cell-based
[7] = target: T3, Protein cereblon/Signal transducer and activator of transcription 3 (Mus musculus) (UniProt P42227+Q8C7D2); experiment: In-vivo PROTAC activity at STAT3/CRBN in female CB17 SCID mouse assessed as reduction STAT3 level liver at 10 mg/kg, iv measured at 24 hrs by Western blot analysis; format: functional, organism-based; design: scale not given: the % may be the effect or the level left
[8] = target: T3, Protein cereblon/Signal transducer and activator of transcription 3 (Mus musculus); experiment: In-vivo PROTAC activity at STAT3/CRBN in female CB17 SCID mouse assessed as reduction STAT3 level spleen at 10 mg/kg, iv measured at 24 hrs by Western blot analysis; format: functional, organism-based; design: scale not given: the % may be the effect or the level left
[9] = target: T3, Protein cereblon/Signal transducer and activator of transcription 3 (Mus musculus); experiment: In-vivo PROTAC activity at STAT3/CRBN in female CB17 SCID mouse assessed as reduction STAT3 level liver at 10 mg/kg, iv measured at 48 hrs by Western blot analysis; format: functional, organism-based; design: scale not given: the % may be the effect or the level left
[10] = target: T3, Protein cereblon/Signal transducer and activator of transcription 3 (Mus musculus); experiment: In-vivo PROTAC activity at STAT3/CRBN in female CB17 SCID mouse assessed as reduction STAT3 level spleen at 10 mg/kg, iv measured at 48 hrs by Western blot analysis; format: functional, organism-based; design: scale not given: the % may be the effect or the level left
[11] = target: T3, Protein cereblon/Signal transducer and activator of transcription 3 (Mus musculus); experiment: In-vivo PROTAC activity at STAT3/CRBN in female CB17 SCID mouse assessed as reduction STAT3 level liver at 10 mg/kg, iv measured at 72 hrs by Western blot analysis; format: functional, organism-based; design: scale not given: the % may be the effect or the level left
[12] = target: T3, Protein cereblon/Signal transducer and activator of transcription 3 (Mus musculus); experiment: In-vivo PROTAC activity at STAT3/CRBN in female CB17 SCID mouse assessed as reduction STAT3 level spleen at 10 mg/kg, iv measured at 72 hrs by Western blot analysis; format: functional, organism-based; design: scale not given: the % may be the effect or the level left
[13] = Antiproliferative activity against human MOLM16 cells assessed as cell growth inhibition incubated for 4 days by celltiter-glo assay; format: functional, cell-based, MOLM-16; conditions: MOLM16, 96 h
[14] = test system: SU-DHL-1; experiment: Antiproliferative activity against human SU-DHL-1 cells assessed as cell growth inhibition incubated for 4 days by celltiter-glo assay; format: functional, cell-based; conditions: SU-DHL-1, 96 h
[15] = Antiproliferative activity against human SUPM2 cells assessed as cell growth inhibition incubated for 4 days by celltiter-glo assay; format: functional, cell-based; conditions: SUP-M2, 96 h
[16] = Half life in ICR mouse at 5 mg/kg, iv; format: ADME, organism-based; conditions: in vivo
[17] = Cmax in ICR mouse at 5 mg/kg, iv; format: ADME, organism-based; conditions: in vivo
[18] = AUC (0 to t) in ICR mouse at 5 mg/kg, iv; format: ADME, organism-based; conditions: in vivo
[19] = Apparent volume of distribution in ICR mouse at 5 mg/kg, iv; format: ADME, organism-based; conditions: in vivo, read-out: Vz
[20] = Clearance in ICR mouse at 5 mg/kg, iv; format: ADME, organism-based; conditions: in vivo
[21] = Clearance in ICR mouse assessed as hepatic blood flow at 5 mg/kg, iv; format: ADME, organism-based; conditions: in vivo
[22] = Half life in Sprague-Dawley rat at 5 mg/kg, iv; format: ADME, organism-based; conditions: in vivo
[23] = Cmax in Sprague-Dawley rat at 5 mg/kg, iv; format: ADME, organism-based; conditions: in vivo
[24] = AUC (0 to t) in Sprague-Dawley rat at 5 mg/kg, iv; format: ADME, organism-based; conditions: in vivo
[25] = Apparent volume of distribution in Sprague-Dawley rat at 5 mg/kg, iv; format: ADME, organism-based; conditions: in vivo, read-out: Vz
[26] = Clearance in Sprague-Dawley rat at 5 mg/kg, iv; format: ADME, organism-based; conditions: in vivo
[27] = Clearance in Sprague-Dawley rat assessed as hepatic blood flow at 5 mg/kg, iv; format: ADME, organism-based; conditions: in vivo
[28] = Half life in Beagle dog at 1 mg/kg, iv; format: ADME, organism-based, Canis lupus familiaris; conditions: in vivo
[29] = Cmax in Beagle dog at 1 mg/kg, iv; format: ADME, organism-based, Canis lupus familiaris; conditions: in vivo
[30] = AUC (0 to t) in Beagle dog at 1 mg/kg, iv; format: ADME, organism-based, Canis lupus familiaris; conditions: in vivo
[31] = Apparent volume of distribution in Beagle dog at 1 mg/kg, iv; format: ADME, organism-based, Canis lupus familiaris; conditions: in vivo, read-out: Vz
[32] = Clearance in Beagle dog at 1 mg/kg, iv; format: ADME, organism-based, Canis lupus familiaris; conditions: in vivo
[33] = Clearance in Beagle dog assessed as hepatic blood flow at 1 mg/kg, iv; format: ADME, organism-based, Canis lupus familiaris; conditions: in vivo
[34] = Plasma protein binding in rat assessed as unbound fraction at 10 uM; format: ADME, cell-free
[35] = Plasma protein binding in dog assessed as unbound fraction at 10 uM; format: ADME, cell-free, Canis lupus familiaris
[36] = Plasma protein binding in human assessed as unbound fraction at 10 uM; format: ADME, cell-free
[37] = Plasma protein binding in mouse at 10 uM; format: ADME, cell-free
[38] = Plasma protein binding in rat at 10 uM; format: ADME, cell-free
[39] = Plasma protein binding in dog at 10 uM; format: ADME, cell-free, Canis lupus familiaris
[40] = Plasma protein binding in human at 10 uM; format: ADME, cell-free
[41] = target: Protein cereblon/Signal transducer and activator of transcription 4 (Homo sapiens, UniProt Q96SW2+Q14765); experiment: PROTAC activity at STAT4/CRBN in human SU-DHL-1 cells assessed as reduction in STAT4 level incubated for 20 hrs by Western blot analysis; format: cell-based; conditions: dose <= 40.0 µM
[42] = target: Signal transducer and activator of transcription 1-alpha/beta (Homo sapiens, UniProt P42224); experiment: Binding affinity to STAT1 (unknown origin) by FP assay
[43] = target: Signal transducer and activator of transcription 4 (Homo sapiens, UniProt Q14765); experiment: Binding affinity to STAT4 (unknown origin) by FP assay
[44] = Binding affinity to STAT5 (unknown origin) by FP assay; design: species or system Homo sapiens
[45] = target: Signal transducer and activator of transcription 6 (Homo sapiens, UniProt P42226); experiment: Binding affinity to STAT6 (unknown origin) by FP assay
[46] = target: T1, Signal transducer and activator of transcription 3; experiment: Binding affinity to STAT3 (unknown origin) assessed as maximum inhibition by FP assay relative to control
[47] = target: Signal transducer and activator of transcription 1-alpha/beta (Homo sapiens) (UniProt P42224); experiment: Binding affinity to STAT1 (unknown origin) assessed as maximum inhibition by FP assay relative to control
[48] = target: Signal transducer and activator of transcription 4 (Homo sapiens) (UniProt Q14765); experiment: Binding affinity to STAT4 (unknown origin) assessed as maximum inhibition by FP assay relative to control
[49] = target: Signal transducer and activator of transcription 6 (Homo sapiens) (UniProt P42226); experiment: Binding affinity to STAT6 (unknown origin) assessed as maximum inhibition by FP assay relative to control
[50] = Chemical stability of the compound in PBS buffer assessed as half life at pH 4; format: physicochemical
[51] = Chemical stability of the compound in PBS buffer assessed as half life at pH 7.4; format: physicochemical
[52] = Chemical stability of the compound in PBS buffer assessed as half life at pH 8; format: physicochemical

## CN1CC[C@H]2CC[C@@H](C(=O)N[C@@H](CCC(N)=O)C(=O)NC(c3ccccc3)c3ccccc3)N2C(=O)[C@@H](NC(=O)c2cc3cc(C(F)(F)P(=O)(O)O)ccc3s2)C1
[1]
  Ki: 6 nM
[2]
  Stability: Stable
[3]
  Stability: Stable
[4]
  Stability: Stable

## CC(=O)N1CC[C@H]2CC[C@@H](C(=O)N[C@@H](CCC(N)=O)C(=O)N[C@@H](Cc3ccc(F)c(F)c3)C(=O)N3CCC(CCC#Cc4cccc5c4CN(C4CCC(=O)NC4=O)C5=O)CC3)N2C(=O)[C@@H](NC(=O)c2cc3cc(C(F)(F)P(=O)(O)O)ccc3s2)C1 (some centres not stated)
[5]
  DC50: 1600 nM
[6]
  Emax: 68%
[7]
  Activity: > 90%
[8]
  Activity: > 90%
[9]
  Activity: > 90%
[10]
  Activity: > 90%
[11]
  Activity: > 90%
[12]
  Activity: > 90%
[13]
  IC50: 75 nM
[14]
  IC50: 3580 nM
[15]
  IC50: 1460 nM
[16]
  half-life: 16.9 h
[17]
  Cmax: 121000 ng/mL
[18]
  AUC(0-t): 739000 ng·h/mL
[19]
  Vd: 0.11 L/kg
[20]
  clearance: 0.073 mL/min/kg
[21]
  QH: 0.1%
[22]
  half-life: 1.3 h
[23]
  Cmax: 15900 ng/mL
[24]
  AUC(0-t): 21100 ng·h/mL
[25]
  Vd: 0.44 L/kg
[26]
  clearance: 4 mL/min/kg
[27]
  QH: 7.3%
[28]
  half-life: 2.9 h
[29]
  Cmax: 8030 ng/mL
[30]
  AUC(0-t): 15000 ng·h/mL
[31]
  Vd: 0.24 L/kg
[32]
  clearance: 1 mL/min/kg
[33]
  QH: 3.1%
[34]
  Fu: 3.8%
[35]
  Fu: 3.3%
[36]
  Fu: 0.6%
[37]
  PPB: 99.1%
[38]
  PPB: 96.2%
[39]
  PPB: 96.7%
[40]
  PPB: 99.4%

## NC(=O)CC[C@H](NC(=O)[C@@H]1CC[C@@H]2CCN(C(=O)CCCCCC#Cc3cccc4c3CN(C3CCC(=O)NC3=O)C4=O)C[C@H](NC(=O)c3cc4cc(C(F)(F)P(=O)(O)O)ccc4[nH]3)C(=O)N21)C(=O)NC(c1ccccc1)c1ccccc1 (some centres not stated)
[5]
  DC50: 400 nM
[6]
  Emax: 86%
[13]
  IC50: 30 nM
[14]
  IC50: 330 nM
[15]
  IC50: 490 nM
[41]
  Activity: Dose-dependent-effect
[42]
  IC50: 1300 nM
[43]
  IC50: 1100 nM
[44]
  IC50: > 10 nM
[45]
  IC50: > 10000 nM
[46]
  Imax: 100%
[47]
  Imax: 92%
[48]
  Imax: 93%
[49]
  Imax: 0%

## CN1CC[C@H]2CC[C@@H](C(=O)N[C@@H](CCC(N)=O)C(=O)NC(c3ccccc3)c3ccccc3)N2C(=O)[C@@H](NC(=O)c2cc3cc(C(F)(F)P(=O)(O)O)ccc3[nH]2)C1
[50]
  t1/2: 4 h
[51]
  t1/2: 2 h
[52]
  t1/2: 2 h
